Consider 81 molecules from the METLIN SMRT retention time set (Domingo-Almenara et al. 2019).

The data set is described as follows: gradient 5% acetonitrile 3 min, to 50% in 2 min, to 85% in 15 min, held 3 min, 100 µL/min. The settings on record: column: Zorbax Extend-C18 2.1 x 50 mm; eluents: water / acetonitrile, 0.1% formic acid. The method in brief:
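Retention time was recorded from adduct peaks, which were picked computationally and each inspected manually. Pure standards ran in mixtures of ~100 molecules on HPLC coupled to a quadrupole time-of-flight mass spectrometer, in positive and negative ionization mode, through a Zorbax Extend-C18 column (2.1 × 50 mm, 1.8 μm) at 100 μL/min. Eluents were water and acetonitrile, each with 0.1% formic acid.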
Turning to `O=C(CN1CCc2[nH]c3c(F)c(Cl)ccc3c(=O)c2C1)NCc1ccccc1F`, the RP-LC retention time stood at 664 s.

`CC1=C(c2ccccc2)S(=O)(=O)N=C1N1CCCN(C(=O)c2ccsc2)CC1` came in with an RP-LC retention time of 571 s.

Molecule `O=C(NC1CCCCC1)C1CCCN(c2nccn3nc(-c4ccccc4Cl)cc23)C1` (stereo unspecified) returned an RP-LC retention time of 976 s.

For `CCOc1ccc(NC(=O)c2nc(C)oc2C)cc1`, the RP-LC retention time was 884 s.

`CC1CCN(C(=O)c2ccc3ccnc(N4CCN(c5ccc(Cl)cc5)CC4)c3c2)CC1` had an RP-LC retention time of 982 s.

For `CCC(=O)N(C1CCOCC1)C1CCN(S(=O)(=O)c2ccc(F)cc2)CC1`, the RP-LC retention time turned out to be 792 s.

`CCCc1cc(N2CCN(c3ccccn3)CC2)n2nc3nc(C)cc(C)c3c2n1`: the RP-LC retention time stood at 615 s.

The molecule `CN(C)c1ccc(CNC(=O)C2CCN(c3cncnc3N3CCCCC3)CC2)cc1` displayed an RP-LC retention time of 564 s.

With `CCCn1cc(C(=O)Nc2cccc(F)c2)c(S(=O)(=O)N2CCC(C)CC2)n1`, the RP-LC retention time amounted to 1220 s.

Molecule `Cc1cc(=O)n(CC(=O)Nc2ccc(Br)cc2)c(N2CCC(C)CC2)n1` yielded an RP-LC retention time of 793 s.

`COc1cc(NC(=O)N(C)Cc2nc3cc(C(=O)N(C)C)ccc3n2C)cc(OC)c1` gave an RP-LC retention time of 610 s.

In turn, `COCCNC(=O)C1CCN(c2nc3ccc(-c4cccnc4)nc3s2)CC1` showed an RP-LC retention time of 578 s.

With `COc1ccc(N2CCN(Cc3cc(=O)c(OC)cn3CC(=O)NC(C)C)CC2)cc1`, the RP-LC retention time came to 557 s.

For `COc1ccc(CC(=O)Nc2c(-c3ccc(F)cc3)nc3ccccn23)cc1`, the RP-LC retention time was 645 s.

On to `CCCOc1cn(-c2ccc(F)cc2)nc1C(=O)N1CCC(C(=O)OCC)CC1`, for which the RP-LC retention time was found to be 930 s.

`CC(=O)Nc1ccc(-n2cnc(C(=O)NC(C)CCc3ccccc3)c2)nc1` (stereo unspecified) registered an RP-LC retention time of 744 s.

Consider `CN(C(=O)Cn1c(=O)oc2ccccc21)C1CCc2nn(C)c(=O)n2CC1` (stereo unspecified), for which the RP-LC retention time amounted to 633 s.

`COc1ccccc1OCC(=O)Nc1ccc2c(c1)C(=O)Nc1cc(Cl)ccc1O2` registered an RP-LC retention time of 873 s.

With `Cc1ccc(C)c(NS(=O)(=O)c2cc(-c3nc(C(C)(C)C)cs3)cs2)c1`, the RP-LC retention time was determined as 1310 s.

Molecule `C=CCNS(=O)(=O)c1c(C)[nH]c(=O)[nH]c1=O` gave an RP-LC retention time of 582 s.

`Cc1ccc(C2Cn3nnc(C(=O)NCC4CC4)c3CO2)cc1` (stereo unspecified) had an RP-LC retention time of 873 s.

As for `Cc1ccc(N2CC(c3noc(-c4cccc(N(C)C)c4)n3)CC2=O)cc1` (stereo unspecified), the RP-LC retention time is 1090 s.

The molecule `O=S(=O)(c1ccc2c(c1)CCC2)N1CCC(Cc2nc(-c3ccncc3)n[nH]2)C1` (stereo unspecified) showed an RP-LC retention time of 662 s.

Take `CC(=O)N1c2nc(-c3ccccc3)nn2C2(CCCCC2)[C@@H]2CCCC[C@@H]21`: the RP-LC retention time is 1390 s.

`CCn1c(=O)c(N2CCCC(C(=O)N3CCN(c4cc(C)ccc4C)CC3)C2)nc2ccccc21` (stereo unspecified) gave an RP-LC retention time of 1380 s.

For `Cc1cccc(Sc2nccnc2N2CCCC(C(=O)NC3CCCCCC3)C2)c1` (stereo unspecified), the RP-LC retention time was 1230 s.

As to `O=C(NC1(c2nc(-c3ccncc3)no2)CCCCC1)c1ccccn1`, the RP-LC retention time came out at 885 s.

For the molecule `Cc1ccc(-c2noc(Cn3ncn4nc(-c5cccs5)cc4c3=O)n2)cc1`, the RP-LC retention time was 1100 s.

In the case of `O=C(Cn1nc(Cc2ccncc2)c2ccccc2c1=O)N1CCN(C(=O)c2ccco2)CC1`, the RP-LC retention time turned out to be 582 s.

In the case of `Cc1cc(F)ccc1NS(=O)(=O)c1cc2n(c1)CCCN(C)C2=O`, the RP-LC retention time was 687 s.

For `C=CCN(CC=C)c1nc(-c2ccc(Cl)cc2)nc2ccccc12`, the RP-LC retention time is 936 s.

Molecule `CC1(O)CCOC2(CCN(C(=O)C3CCCC3)CC2)C1` (stereo unspecified) had an RP-LC retention time of 662 s.

In the case of `CN(CC1CCOCC1)C(=O)Nc1ccccc1C(F)(F)F`, the RP-LC retention time worked out at 738 s.

On to `CCNC(=O)C1=CCN(C(=O)c2cc(C)cc(C)c2)CC1`, for which the RP-LC retention time came out at 720 s.

`CCc1ccc(CNC(=O)c2cc3n(n2)CC(C)(C(=O)NCc2ccc(F)cc2)N(C)C3=O)cc1` (stereo unspecified) came in with an RP-LC retention time of 858 s.

Turning to `Cc1ccc(NC(=O)CSc2ccc(N3CCCC(C(=O)NC4CC4)C3)nn2)cc1F` (stereo unspecified), the RP-LC retention time worked out at 664 s.

In turn, `COc1cc(NC(=O)C2CCCN(c3nnc4ccc(Cl)cn34)C2)cc(OC)c1OC` (stereo unspecified) had an RP-LC retention time of 734 s.

In turn, `COc1ccc(Cl)cc1NC(=O)N1CCCC(Cn2cnc3cccnc32)C1` (stereo unspecified) displayed an RP-LC retention time of 761 s.

`CCOC(=O)c1sc(NC(=O)c2ccc(Br)cc2F)nc1C` had an RP-LC retention time of 986 s.

Molecule `CN(C)C(=O)c1csc(S(=O)(=O)N2CCC(C(=O)NCc3ccc(Cl)cc3)CC2)c1` had an RP-LC retention time of 787 s.

The molecule `CCN1CCN(C(=O)C2CCN(S(=O)(=O)c3c(C)nn(-c4ccc(F)cc4)c3C)CC2)CC1` gave an RP-LC retention time of 641 s.

As to `CC(C)NC(=O)Cn1c(=O)c2cnc(-c3ccccc3)nc2n(C)c1=O`, the RP-LC retention time came to 802 s.

With `COC(=O)c1cccc(NC(=O)c2csc(-c3cn(C)c4ncccc34)n2)c1`, the RP-LC retention time was 984 s.

`Cn1cc(CN2CCCC(COc3ccccc3C(=O)N3CCCCC3)C2)c2ccccc21` (stereo unspecified) gave an RP-LC retention time of 753 s.

Regarding `O=C(Cc1cccc(F)c1)NC1CCN(c2ccccc2)C1=O` (stereo unspecified), the RP-LC retention time came to 770 s.

On to `O=C(NC1CCCCC1)C1CCCN(S(=O)(=O)c2cc(-c3noc(C4CCCC4)n3)cs2)C1` (stereo unspecified), for which the RP-LC retention time worked out at 1220 s.

As for `O=C(NCc1ccc(F)c(Cl)c1)C1CCN(c2ccc(SCc3ccccc3)nn2)CC1`, the RP-LC retention time amounted to 839 s.

As to `COc1ccc2nc(C(=O)NCc3cccc(Br)c3)cn2n1`, the RP-LC retention time is 896 s.

In turn, `Cc1nc(-c2cn(C(C)C)c3ncccc23)sc1C(=O)NCc1cccs1` had an RP-LC retention time of 970 s.

`O=C(NCc1ccccc1Cl)C(=O)c1c[nH]c2ccccc12` gave an RP-LC retention time of 936 s.

Take `O=C(NC1CCCCC1)C1CCCN(C(=O)c2cc(-c3cccnc3)n[nH]2)C1` (stereo unspecified): the RP-LC retention time is 622 s.

For `CCOc1ccc(-c2ccc(=O)n(CCc3nc(-c4cccc(OC)c4OC)no3)n2)cc1`, the RP-LC retention time turned out to be 952 s.

In turn, `COC(=O)c1c(-c2ccc(Cl)cc2)noc1NCCN1CCOCC1` yielded an RP-LC retention time of 660 s.

The molecule `COC(=O)c1cc(OCC(=O)Nc2ccc(F)cc2)c2cc(OC)c(OC)cc2n1` yielded an RP-LC retention time of 750 s.

As for `Cn1nc(N2CCC(NC(=O)CCn3cccn3)C2)ccc1=O` (stereo unspecified), the RP-LC retention time worked out at 582 s.

`CCc1nc(-c2csc(S(=O)(=O)N3CCC(C(=O)Nc4ccc(C)cc4)CC3)c2)no1` had an RP-LC retention time of 1020 s.

The molecule `CCCCN(CC)CCNC(=O)C1CCN(c2ncnc3onc(C)c23)CC1` had an RP-LC retention time of 598 s.

With `CCCc1noc(-c2nnn3c2COC(c2ccc(F)cc2)C3)n1` (stereo unspecified), the RP-LC retention time amounted to 1040 s.

With `O=S(=O)(Cc1ccccc1F)N1CCc2nnc(C3CC3)n2CC1`, the RP-LC retention time was 626 s.

`O=S(=O)(c1cccnc1)N1CCC(OC2CCN(Cc3ccccc3)CC2)CC1` gave an RP-LC retention time of 637 s.

`c1cncc(-c2nc(-c3ccnc(N4CCOCC4)c3)no2)c1` had an RP-LC retention time of 953 s.

Turning to `COc1ccc2[nH]cc(CCN3CC(C(=O)N4CCc5ccccc54)CC3=O)c2c1` (stereo unspecified), the RP-LC retention time worked out at 802 s.

`CC(C)c1ccc2oc3nc(N)c(C(=O)O)cc3c(=O)c2c1` yielded an RP-LC retention time of 891 s.

The molecule `COc1ccc(C(=O)N2C[C@@H]3C[C@H](NC(=O)c4cccnc4)[C@H]2C3)c(OC)c1` yielded an RP-LC retention time of 605 s.

In turn, `Cc1nc(CC(=O)Nc2nc(-c3ccc(OC(C)C)cc3)cs2)cs1` yielded an RP-LC retention time of 1080 s.

In turn, `Cc1cccc(C)c1NC1=NCCCS1` registered an RP-LC retention time of 635 s.

The molecule `S=c1cc(N2CCSCC2)[nH]cn1` gave an RP-LC retention time of 602 s.

`CCC(C)NC(=O)CSc1cc(N2CCN(c3ccc(OC)cc3)CC2)ncn1` (stereo unspecified): the RP-LC retention time was 775 s.

As for `COC(=O)c1cc(OC)c(OC)cc1NC(=O)C1=Cc2cc(OC)ccc2OC=C1`, the RP-LC retention time was found to be 829 s.

`CCCCCCCNC(=O)C1CCCN(c2ncc(-c3ccc(F)cc3)cn2)C1` (stereo unspecified) showed an RP-LC retention time of 1260 s.

`COc1ccc(-n2cc(C(=O)Nc3ccc(SC)cc3)nn2)cc1` came in with an RP-LC retention time of 966 s.

The molecule `O=C(c1ccccc1F)N1CCC(CNS(=O)(=O)c2ccc(C(F)(F)F)cc2)CC1` yielded an RP-LC retention time of 847 s.

Molecule `Cn1cccc1C(=O)C(=O)NCc1ccc(Cl)cc1` gave an RP-LC retention time of 906 s.

As to `COC(=O)c1ccc(C2CC(=O)NC3=C2C(=O)C(C(=O)OC)C(C)C3)cc1` (stereo unspecified), the RP-LC retention time stood at 719 s.

For `CCc1ccc(-n2cc(C(=O)OCc3cc(=O)n4ccccc4n3)c3ccccc3c2=O)cc1`, the RP-LC retention time was found to be 991 s.

The molecule `CCc1nc(C2CN(CCc3ccccc3)CC23CCCC3)no1` (stereo unspecified) came in with an RP-LC retention time of 670 s.

For `CCNC(=O)N1CCC(c2noc(-c3ccccn3)n2)C1` (stereo unspecified), the RP-LC retention time is 594 s.

For `CCCN(CC1CCOC1)C(=O)c1cc(F)cc(F)c1` (stereo unspecified), the RP-LC retention time is 808 s.

In turn, `COc1ccc(-c2cc(N3CCN(C(=O)c4ccc5[nH]ccc5c4)CC3)n[nH]2)cc1` came in with an RP-LC retention time of 703 s.

`Cn1nnc2cc(CNC(=O)c3cccc(Cl)c3)ccc21` came in with an RP-LC retention time of 715 s.

Take `Cc1cc2n(n1)CCC(=O)N2CCCC(=O)N1CCN(C(=O)c2ccco2)CC1`: the RP-LC retention time stood at 604 s.
